Assays:
Abutilon theophrasti [1] = test: Phytotoxicity against Abutilon theophrasti assessed as seed germination at 2 mM after 2 days relative to control; format: functional
Abutilon theophrasti [2] = test: Phytotoxicity against Abutilon theophrasti assessed as seed germination at 1 mM after 2 days relative to control; format: functional
Abutilon theophrasti [3] = test: Phytotoxicity against Abutilon theophrasti assessed as seed germination at 0.8 mM after 2 days relative to control; format: functional
Abutilon theophrasti [4] = test: Phytotoxicity against Abutilon theophrasti assessed as seed germination at 0.6 mM after 2 days relative to control; format: functional
Abutilon theophrasti [5] = test: Phytotoxicity against Abutilon theophrasti assessed as seed germination at 1 mM after 4 days relative to control; format: functional
Abutilon theophrasti [6] = test: Phytotoxicity against Abutilon theophrasti assessed as seed germination at 0.8 mM after 4 days relative to control; format: functional
Abutilon theophrasti [7] = test: Phytotoxicity against Abutilon theophrasti assessed as seed germination at 0.6 mM after 4 days relative to control; format: functional
Abutilon theophrasti [8] = test: Phytotoxicity against Abutilon theophrasti assessed as seed germination at 2 mM after 2 weeks; format: functional, organism-based
Abutilon theophrasti [9] = test: Phytotoxicity against Abutilon theophrasti assessed as seed germination at 2 mM after 4 days relative to control; format: functional
Abutilon theophrasti [10] = test: Phytotoxicity against Abutilon theophrasti assessed as seed germination at 5 mM after 2 days relative to control; format: functional
Abutilon theophrasti [11] = test: Phytotoxicity against Abutilon theophrasti assessed as seed germination at 0.5 mM after 2 days relative to control; format: functional
Abutilon theophrasti [12] = test: Phytotoxicity against Abutilon theophrasti assessed as seed germination at 5 mM after 4 days relative to control; format: functional
Abutilon theophrasti [13] = test: Phytotoxicity against Abutilon theophrasti assessed as seed germination at 0.5 mM after 4 days relative to control; format: functional

SMILES	Activity (Abutilon theophrasti [1]) [%]	Activity (Abutilon theophrasti [2]) [%]	Activity (Abutilon theophrasti [3]) [%]	Activity (Abutilon theophrasti [4]) [%]	Activity (Abutilon theophrasti [5]) [%]	Activity (Abutilon theophrasti [6]) [%]	Activity (Abutilon theophrasti [7]) [%]	Activity (Abutilon theophrasti [8])	Activity (Abutilon theophrasti [9]) [%]	Activity (Abutilon theophrasti [10]) [%]	Activity (Abutilon theophrasti [11]) [%]	Activity (Abutilon theophrasti [12]) [%]	Activity (Abutilon theophrasti [13]) [%]
O=C1C(O)Oc2ccccc2N1O (stereo unspecified)	0	6	40	59	72	82	97	Toxic	0	–	–	–	–
O=c1[nH]c2ccccc2o1 [BENZOXAZOLINONE]	–	111	–	–	116	–	–	–	–	14	118	75	125
O=C1C(O[C@@H]2O[C@H](CO)[C@@H](O)[C@H](O)[C@H]2O)Oc2ccccc2N1O (stereo partly specified)	–	–	–	–	–	–	–	–	–	89	–	–	–

— ChEMBL document CHEMBL1151640, “Benzoxazolinone, 2,4-Dihydroxy-1,4-benzoxazin-3-one, and Its Glucoside from Acanthus mollis Seeds Inhibit Velvetleaf Germination and Growth” (1985)
